From patent US9000154B2, “Rho kinase inhibitors” (Boehringer Ingelheim International GmbH, priority 2010, dated 2015)
Counter-ions that a name gives are not always drawn.

What was measured:
[1] = target: T1, ROCKII (1-543) (Homo sapiens, UniProt O75116); experiment: IMAP Assay (fluorescence polarization, FAM S6 peptide); type: biochemical; parameters: 3 nM ROCKII (1-543) diluted in kinase reaction buffer; conditions: IMAP FP, 1 nM ROCKII (1-543), 100 μM ATP; read-out: Assay 2 IC50
Procedure: This assay is performed using FAM S6 substrate peptide (Catalogue #R7184) and IMAP FP Screening Express Kit detection reagents from Molecular Devices (Sunnyvale, Calif.) in IMAP kinase reaction buffer (Tris-HCl, pH 7.2, 10 mM MgCl2, 0.05% NaN3, 0.1% phosphate-free BSA) containing 1 mM DTT. Test compounds dissolved in neat DMSO at 0.3 mg/mL are serially diluted 1 to 3 for concentration response in 100% DMSO. The DMSO serial dilutions are further diluted 33.33-fold in kinase reaction buffer, and 10 μL of this buffer dilution is transferred to Corning black 96-well half area NBS plates for a final top concentration of 3 μg/mL in 1% DMSO. 10 μL aliquot of 3 nM ROCKII (1-543) diluted in kinase reaction buffer is added to each assay well for a final concentration of 1 nM kinase. 10 μL of a mixture of 600 nM FAM S6 peptide and 300 μM ATP diluted in kinase reaction buffer is added to each well for a final concentration of 200 nM peptide and 100 μM ATP. The kinase reaction mixture is incubated for 60 minutes at room temperature. Positive controls are reaction mixtures containing no test compound and negative controls (blanks) are reaction mixtures containing no kinase. The kinase reaction is stopped by addition of 60 μL IMAP progressive binding reagent (Catalog #R7284) diluted 400-fold in 1× Binding buffer A. After 30 min of incubation at room temperature, the plates are read for fluorescence polarization on Analyst Plate Reader using Ex 485 nm, Em 530 nm, and FL 505 dichroic mirror. The mP signals are converted to percent of control (POC) values using the formula: POC=100*(Signal−BCTRL)÷(PCTRL−BCTRL)
Where Signal is the test well signal, BCTRL is the average of background (negative control) well signals on the plate and PCTRL is the average of positive control well signals on the plate. For the concentration-responsive compounds, POC as a function of test compound concentration is fitted to a 4-parameter logistic equation of the form: Y=A+(B−A)/[1+(x/C)D]
Where A, B, C, and D are fitted parameters (parameter B is fixed at zero POC), and x and y are the independent and dependent variables, respectively. The IC50 is determined as the inflection point parameter, C.
Target sequence in this assay (O75116 1-543, species assumed): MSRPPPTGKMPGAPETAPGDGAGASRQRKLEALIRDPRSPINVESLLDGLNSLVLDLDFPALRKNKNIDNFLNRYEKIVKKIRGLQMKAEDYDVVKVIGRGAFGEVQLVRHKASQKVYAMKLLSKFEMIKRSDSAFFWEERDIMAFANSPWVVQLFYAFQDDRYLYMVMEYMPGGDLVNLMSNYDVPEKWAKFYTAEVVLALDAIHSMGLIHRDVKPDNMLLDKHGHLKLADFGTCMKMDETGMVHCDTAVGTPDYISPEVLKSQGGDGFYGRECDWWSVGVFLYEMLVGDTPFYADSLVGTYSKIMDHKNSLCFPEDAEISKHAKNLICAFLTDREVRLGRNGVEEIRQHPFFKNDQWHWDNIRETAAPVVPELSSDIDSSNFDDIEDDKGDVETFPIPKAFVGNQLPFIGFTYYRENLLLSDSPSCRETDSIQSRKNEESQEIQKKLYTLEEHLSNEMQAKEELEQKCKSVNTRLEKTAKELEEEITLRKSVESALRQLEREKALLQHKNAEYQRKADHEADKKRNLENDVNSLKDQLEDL

[2] = target: T1, ROCKII (1-543); experiment: Luciferin-Luciferase Assay (PKLight ATP detection); type: biochemical; parameters: ROCKII (1-543) (62,408 Da) was diluted in assay buffer; conditions: 7.5 nM ROCKII (1-543), 750 nM ATP
Procedure: 1. Luciferin-Luciferase Assay
The activity of ROCKII (1-543) kinase was measured utilizing Cambrex PKLight ATP Detection Reagent, a homogeneous assay technology using luciferin-luciferase to quantify residual ATP. The assay was performed in 384-well low-volume, white, non-binding surface microtiter plates (Corning). The assay buffer was 25 mM HEPES, pH 7.5, 10 mM MgCl2, 50 mM KCl, 0.2% BSA, 0.01% CHAPS, 100 μM Na3VO4 and 0.5 mM DTT. Test compounds, dissolved in neat DMSO at 500 μg/mL, were serially diluted for dose response for a final starting concentration of 3 μg/mL in 1% DMSO of assay buffer. ROCKII (1-543) (62,408 Da) was diluted in assay buffer to a final concentration of 7.5 nM in a total volume of 15 μL. Positive controls were reaction mixtures containing no test compound; negative controls (blanks) were reaction mixtures containing no kinase. After 15 minutes of pre-incubation of the test compounds with the kinase, a mixture of ATP and peptide substrate (AKRRRLSSLRA) in assay buffer was added to each well for a final concentration of 750 nM ATP and 500 nM peptide, respectively. After 90 minutes of incubation of the kinase reaction at 28° C. temperature, 10 μL of PKLight ATP Detection Reagent (warmed to room temperature previously) was added to each well. The assay plate was incubated at room temperature for additional 15 minutes and then read on an Analyst in luminescence mode. Dose-response experiments for each of the test compounds were conducted in quadruplet. IC50 values of test compounds represent 50% response of the positive control from the dose-response curve.
Target sequence in this assay (O75116 1-543): as the sequence (O75116 1-543, species assumed) above

| Compound | IC50 [1] [nM] | IC50 [2] [nM] |
| --- | --- | --- |
| CN1CCc2nc(NC(=O)c3cccc(CN4CCN(c5ccc(C#N)cc5)C4=O)c3)sc2C1 [Compound 1, 3-[3-(4-Cyano-phenyl)-2-oxo-imidazolidin-1-ylmethyl]-N-(5-methyl-4,5,6,7-tetrahydro-thiazolo[5,4-c]pyridin-2-yl)-benzamide] | 54 | 4.8 |
| CN1CCc2nc(NC(=O)c3cccc(Cn4cc(-c5ccc(C#N)cc5)nn4)c3)sc2C1 [Compound 2, 3-[4-(4-Cyano-phenyl)-[1,2,3]triazol-1-ylmethyl]-N-(5-methyl-4,5,6,7-tetrahydro-thiazolo[5,4-c]pyridin-2-yl)-benzamide] | 11 | 2.8 |
| CN(C)[C@H]1CCc2nc(NC(=O)c3cccc(CN4CCN(c5ccc(C#N)cc5)C4=O)c3)sc2C1 [Compound 3, 3-[3-(4-Cyano-phenyl)-2-oxo-imidazolidin-1-ylmethyl]-N—((S)-6-dimethylamino-4,5,6,7-tetrahydro-benzothiazol-2-yl)-benzamide] | 0.67 | 2 |
| N#Cc1ccc(N2CCN(Cc3cccc(C(=O)Nc4nc5c(s4)C[C@@H](N4CCOCC4)CC5)c3)C2=O)cc1 [Compound 6, 3-[3-(4-Cyano-phenyl)-2-oxo-imidazolidin-1-ylmethyl]-N—((S)-6-morpholin-4-yl-4,5,6,7-tetrahydro-benzothiazol-2-yl)-benzamide] | 1.3 | 2 |
| N#Cc1ccc(-c2cn(Cc3cccc(C(=O)Nc4nc5c(s4)C[C@@H](N4CCOCC4)CC5)c3)cn2)cc1 [Compound 10, 3-[4-(4-Cyano-phenyl)-imidazol-1-ylmethyl]-N—((S)-6-morpholin-4-yl-4,5,6,7-tetrahydro-benzothiazol-2-yl)-benzamide] | 0.87 | 2.7 |
| N#Cc1ccc(-c2cnn(Cc3cccc(C(=O)Nc4nc5c(s4)CC(N4CCC(F)(F)CC4)CC5)c3)c2)cc1 (stereo not shown) [Compound 15, 3-[4-(4-Cyano-phenyl)-pyrazol-1-ylmethyl]-N-[6-(4,4-difluoro-piperidin-1-yl)-4,5,6,7-tetrahydro-benzothiazol-2-yl]-benzamide trifluoroacetate] | 2.4 | 4.6 |
| N#Cc1ccc(-c2cnn(Cc3cccc(C(=O)Nc4nc5c(s4)CC(N4CCC(F)CC4)CC5)c3)c2)cc1 (stereo not shown) [Compound 18, 3-[4-(4-Cyano-phenyl)-pyrazol-1-ylmethyl]-N-[6-(4-fluoro-piperidin-1-yl)-4,5,6,7-tetrahydro-benzothiazol-2-yl]-benzamide trifluoroacetate] | 0.66 | 2.2 |
| N#Cc1ccc(-c2cn(Cc3cccc(C(=O)Nc4nc5c(s4)C[C@@H](NCCC(F)(F)F)CC5)c3)nn2)cc1 [Compound 22, 3-[4-(4-Cyano-phenyl)-[1,2,3]triazol-1-ylmethyl]-N—[(S)-6-(3,3,3-trifluoro-propylamino)-4,5,6,7-tetrahydro-benzothiazol-2-yl]-benzamide] | 1.1 | 2.2 |
| COCCN(C)C1CCc2nc(NC(=O)c3cccc(Cn4cc(-c5ccc(C#N)cc5)nn4)c3)sc2C1 (stereo not shown) [Compound 24, 3-[4-(4-Cyano-phenyl)-[1,2,3]triazol-1-ylmethyl]-N-{6-[(2-methoxy-ethyl)-methyl-amino]-4,5,6,7-tetrahydro-benzothiazol-2-yl}-benzamide] | 2.6 | 3.1 |
| C[C@@H]1CN(C2CCc3nc(NC(=O)c4cccc(Cn5cc(-c6ccc(C#N)cc6)cn5)c4)sc3C2)C[C@H](C)O1 (stereo partly drawn) [Compound 26, 3-[4-(4-Cyano-phenyl)-pyrazol-1-ylmethyl]-N-[6-((2R,6S)-2,6-dimethyl-morpholin-4-yl)-4,5,6,7-tetrahydro-benzothiazol-2-yl]-benzamide] | 3.9 | 4.3 |
| C[C@@H]1CN(C2CCc3nc(NC(=O)c4cccc(Cn5cc(-c6ccc(C#N)cc6)nn5)c4)sc3C2)C[C@H](C)O1 (stereo partly drawn) [Compound 27, 3-[4-(4-Cyano-phenyl)-[1,2,3]triazol-1-ylmethyl]-N-[6-((2S,6R)-2,6-dimethyl-morpholin-4-yl)-4,5,6,7-tetrahydro-benzothiazol-2-yl]-benzamide] | 3.9 | 3.1 |
| N#Cc1ccc(-c2cn(Cc3cccc(C(=O)Nc4nc5c(s4)C[C@H](N)CC5)c3)nn2)cc1 [Compound 58, N—((R)-6-Amino-4,5,6,7-tetrahydro-benzothiazol-2-yl)-3-[4-(4-cyano-phenyl)-[1,2,3]triazol-1-ylmethyl]-benzamide] | – | 2.2 |
| CN(CC(F)F)C1CCc2nc(NC(=O)c3cccc(Cn4cc(-c5ccc(C#N)cc5)cn4)c3)sc2C1 (stereo not shown) [Compound 59, 3-[4-(4-Cyano-phenyl)-pyrazol-1-ylmethyl]-N-{6-[(2,2-difluoro-ethyl)-methyl-amino]-4,5,6,7-tetrahydro-benzothiazol-2-yl}-benzamide] | – | 7.3 |
| COCCN(C)[C@@H]1CCc2nc(NC(=O)c3cccc(Cn4cc(-c5ccc(C#N)cc5)cn4)c3)sc2C1 [Compound 64, 3-[4-(4-Cyano-phenyl)-pyrazol-1-ylmethyl]-N-{(R)-6-[(2-methoxy-ethyl)-methyl-amino]-4,5,6,7-tetrahydro-benzothiazol-2-yl}-benzamide] | – | 2 |
| COCCN[C@@H]1CCc2nc(NC(=O)c3cccc(Cn4cc(-c5ccc(C#N)cc5)nn4)c3)sc2C1 [Compound 65, 3-[4-(4-Cyano-phenyl)-[1,2,3]triazol-1-ylmethyl]-N—[(R)-6-(2-methoxy-ethylamino)-4,5,6,7-tetrahydro-benzothiazol-2-yl]-benzamide] | – | 1.9 |
| COCCN(C)[C@@H]1CCc2nc(NC(=O)c3cccc(Cn4cc(-c5ccc(C#N)cc5)nn4)c3)sc2C1 [Compound 66, 3-[4-(4-Cyano-phenyl)-[1,2,3]triazol-1-ylmethyl]-N-{(R)-6-[(2-methoxy-ethyl)-methyl-amino]-4,5,6,7-tetrahydro-benzothiazol-2-yl}-benzamide] | – | 6.5 |
| CN(C1CC1)C1CCc2nc(NC(=O)c3cccc(Cn4cc(-c5ccc(C#N)cc5)cn4)c3)sc2C1 (stereo not shown) [Compound 67, 3-[4-(4-Cyano-phenyl)-pyrazol-1-ylmethyl]-N-[6-(cyclopropyl-methyl-amino)-4,5,6,7-tetrahydro-benzothiazol-2-yl]-benzamide] | – | 4.5 |
| CN(C1CC1)C1CCc2nc(NC(=O)c3cccc(Cn4cc(-c5ccc(C#N)cc5)nn4)c3)sc2C1 (stereo not shown) [Compound 68, 3-[4-(4-Cyano-phenyl)-[1,2,3]triazol-1-ylmethyl]-N-[6-(cyclopropyl-methyl-amino)-4,5,6,7-tetrahydro-benzothiazol-2-yl]-benzamide] | – | 7.3 |
| N#Cc1ccc(-c2cnn(Cc3cccc(C(=O)Nc4nc5c(s4)CC(N4CCCC(F)(F)C4)CC5)c3)c2)cc1 (stereo not shown) [Compound 71, 3-[4-(4-Cyano-phenyl)-pyrazol-1-ylmethyl]-N-[6-(3,3-difluoro-piperidin-1-yl)-4,5,6,7-tetrahydro-benzothiazol-2-yl]-benzamide] | – | 7.2 |
| N#Cc1ccc(-c2cnn(Cc3cccc(C(=O)Nc4nc5c(s4)CC(N4CCC(F)(F)C4)CC5)c3)c2)cc1 (stereo not shown) [Compound 73, 3-[4-(4-Cyano-phenyl)-pyrazol-1-ylmethyl]-N-[6-(3,3-difluoro-pyrrolidin-1-yl)-4,5,6,7-tetrahydro-benzothiazol-2-yl]-benzamide] | – | 8.5 |
